In the NIST ThermoML archive (doi:10.1016/j.jct.2016.02.016):

Columns and labels:
[1] = xn = mol fraction of the nth substance listed; settings: 100 kPa, Liquid; for speed of sound: Frequency=3 MHz, Sing-around technique in a fixed-path interferometer; for mass density: Vibrating tube method
[2] = refractive index (Na D-line) (dimensionless); xn = mol fraction of the nth substance listed; settings: 100 kPa, Liquid, Standard Abbe refractometry

CCCC(C)=O [pentan-2-one] + CN(C)C=O
Settings | mass density, [1] [kg/m3] | refractive index, [2] | speed of sound, [1] [m/s]
293.15 K, x2 = 0 | 806.83 | 1.39026 | 1232.4
293.15 K, x2 = 0.056 | – | 1.39208 | –
293.15 K, x2 = 0.1141 | 819.616 | 1.39408 | 1254.3
293.15 K, x2 = 0.1516 | 823.961 | – | 1261.7
293.15 K, x2 = 0.1531 | – | 1.39541 | –
293.15 K, x2 = 0.2063 | 830.491 | 1.39735 | 1273
293.15 K, x2 = 0.2588 | 836.933 | 1.39918 | 1284
293.15 K, x2 = 0.3089 | 843.115 | 1.40106 | 1294.7
293.15 K, x2 = 0.3594 | 849.625 | 1.40295 | 1303.2
293.15 K, x2 = 0.4006 | 855.077 | 1.40453 | 1315.3
293.15 K, x2 = 0.4488 | 861.489 | 1.40643 | 1326.3
293.15 K, x2 = 0.4999 | 868.584 | 1.40845 | 1338.5
293.15 K, x2 = 0.5466 | 875.212 | 1.41036 | 1350
293.15 K, x2 = 0.5976 | – | 1.41245 | –
293.15 K, x2 = 0.5987 | 882.775 | – | 1363.1
293.15 K, x2 = 0.6581 | 891.66 | 1.41495 | 1378.4
293.15 K, x2 = 0.6992 | – | 1.41668 | –
293.15 K, x2 = 0.7528 | 906.494 | 1.41906 | 1404.2
293.15 K, x2 = 0.8029 | 914.576 | 1.42129 | 1418.1
293.15 K, x2 = 0.8461 | 921.84 | 1.42325 | 1430.7
293.15 K, x2 = 0.9017 | 931.277 | 1.42583 | 1446.8
293.15 K, x2 = 0.9496 | 939.704 | 1.42811 | 1460.9
298.15 K, x2 = 0 | 801.99 | 1.38793 | 1211.9
298.15 K, x2 = 0.0568 | 808.267 | 1.38979 | 1222.8
298.15 K, x2 = 0.1 | 813.221 | 1.39128 | 1231.3
298.15 K, x2 = 0.1526 | 819.25 | 1.3931 | 1241.7
298.15 K, x2 = 0.1895 | 823.621 | 1.39442 | 1249.2
298.15 K, x2 = 0.2545 | 831.549 | 1.3967 | 1262.9
298.15 K, x2 = 0.3298 | 841.051 | 1.39955 | 1279.3
298.15 K, x2 = 0.3502 | 843.666 | 1.40029 | 1283.9
298.15 K, x2 = 0.3956 | 849.557 | 1.40203 | 1294
298.15 K, x2 = 0.4567 | 857.796 | 1.40441 | 1308.5
298.15 K, x2 = 0.5084 | 865.012 | 1.4065 | 1320.8
298.15 K, x2 = 0.557 | 871.899 | 1.40855 | 1332.9
298.15 K, x2 = 0.6022 | 878.552 | 1.41039 | 1344.4
298.15 K, x2 = 0.6448 | 884.967 | 1.41217 | 1355.5
298.15 K, x2 = 0.7117 | 895.208 | 1.41498 | 1373.4
298.15 K, x2 = 0.7504 | 901.333 | – | 1384
298.15 K, x2 = 0.7511 | – | 1.41672 | –
298.15 K, x2 = 0.8027 | 909.784 | 1.41905 | 1398.7
298.15 K, x2 = 0.849 | 917.57 | 1.42117 | 1412.1
298.15 K, x2 = 0.9019 | 926.592 | 1.42364 | 1427.6
298.15 K, x2 = 0.9429 | 933.872 | 1.42557 | 1440.1
303.15 K, x2 = 0 | 796.73 | 1.38523 | 1191.7
303.15 K, x2 = 0.0581 | 803.204 | – | 1203
303.15 K, x2 = 0.0681 | – | 1.38748 | –
303.15 K, x2 = 0.1088 | 808.974 | – | 1212.9
303.15 K, x2 = 0.113 | – | 1.38906 | –
303.15 K, x2 = 0.1576 | – | 1.39062 | –
303.15 K, x2 = 0.16 | 815.007 | – | 1223.3
303.15 K, x2 = 0.1979 | – | 1.39212 | –
303.15 K, x2 = 0.2044 | 820.314 | – | 1232.5
303.15 K, x2 = 0.2343 | – | 1.39347 | –
303.15 K, x2 = 0.262 | 827.319 | – | 1244.6
303.15 K, x2 = 0.3046 | 832.689 | – | 1253.9
303.15 K, x2 = 0.3128 | – | 1.39635 | –
303.15 K, x2 = 0.3506 | 838.634 | – | 1264.1
303.15 K, x2 = 0.3603 | – | 1.3982 | –
303.15 K, x2 = 0.4014 | 845.319 | – | 1275.7
303.15 K, x2 = 0.4156 | – | 1.40034 | –
303.15 K, x2 = 0.4485 | – | 1.40167 | –
303.15 K, x2 = 0.482 | 856.31 | – | 1294.7
303.15 K, x2 = 0.4954 | – | 1.40355 | –
303.15 K, x2 = 0.5006 | 858.884 | – | 1299.1
303.15 K, x2 = 0.5407 | 864.591 | – | 1309
303.15 K, x2 = 0.5505 | – | 1.4058 | –
303.15 K, x2 = 0.5986 | – | 1.40783 | –
303.15 K, x2 = 0.5989 | 873.078 | – | 1323.9
303.15 K, x2 = 0.6407 | – | 1.40954 | –
303.15 K, x2 = 0.6467 | 880.175 | – | 1336.3
303.15 K, x2 = 0.6949 | 887.598 | – | 1349.2
303.15 K, x2 = 0.6952 | – | 1.41187 | –
303.15 K, x2 = 0.7401 | – | 1.41378 | –
303.15 K, x2 = 0.7518 | 896.616 | – | 1364.8
303.15 K, x2 = 0.7992 | – | 1.41643 | –
303.15 K, x2 = 0.8007 | 904.558 | – | 1378.6
303.15 K, x2 = 0.8527 | 913.274 | – | 1393.6
303.15 K, x2 = 0.8559 | – | 1.41908 | –
303.15 K, x2 = 0.8991 | 921.307 | – | 1407.5
303.15 K, x2 = 0.8994 | – | 1.42109 | –
303.15 K, x2 = 0.9411 | – | 1.42312 | –
303.15 K, x2 = 0.9485 | 929.946 | – | 1422.2
